In PubChem BioAssay (NCI):
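Values below derive from 48-hour exposures of cells grown in 96-well plates, with endpoints linearly interpolated between the two concentrations bracketing the appropriate inhibition level. GI50: concentration for 50% inhibition of growth. TGI denotes the concentration required for complete inhibition of growth.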

Tests used:
Assay in all cases: NCI tumour cell line growth inhibition, 48 h
[1] = system: EKVX NSCLC
[2] = system: SN12C renal
[3] = system: SF-295 CNS
[4] = system: IGROV1 ovarian
[5] = system: T-47D breast
[6] = system: NCI/ADR-RES ovarian
[7] = system: UACC-62 melanoma
[8] = system: SNB-75 CNS
[9] = system: SW-620 colon
[10] = system: A549 NSCLC

Structure (SMILES) | TGI [1] [µM] | TGI [2] [µM] | TGI [3] [µM] | TGI [4] [µM] | TGI [5] [µM] | TGI [6] [µM] | TGI [7] [µM] | TGI [8] [µM] | TGI [9] [µM] | TGI [10] [µM] | GI50 [1] [nM] | GI50 [2] [nM] | GI50 [3] [nM] | GI50 [4] [µM] | GI50 [5] [nM] | GI50 [6] [nM] | GI50 [7] [nM] | GI50 [8] [nM] | GI50 [9] [nM] | GI50 [10] [nM]
CCOP(=O)(OCC)/C(=C/n1c(=S)[nH]c2ccccc21)C(=O)OC | > 100 | > 100 | > 100 | > 100 | > 100 | > 100 | > 100 | > 100 | > 100 | > 100 |  |  |  |  |  |  |  |  |  | 
O=C(Nc1ccc(Br)c2ccccc12)c1ccc2ccccc2c1O | > 100 | 24.9 | 8.65 | 16.4 | 14.5 | 12.9 | 15 | 8.68 | 14.8 | 11 |  |  |  |  |  |  |  |  |  | 
CCCCCCCCN(CCCCCCCC)CC(O)c1cc(-c2ccccc2)nc2ccc(OC)cc12 (centres undefined) | > 100 | > 100 | > 100 | > 100 | > 100 | > 100 | > 100 | > 100 | > 100 | > 100 | > 100000 | 29700 | > 100000 | > 100 | 25600 | 16300 | 21500 | > 100000 | 16500 | > 100000
CC(=O)C1=C(C)N(Cc2ccccc2)C2(O)C=CC(=O)C3=C(O)c4ccccc4C(=O)C312 (centres undefined) | 33.8 | 3.6 | 27.9 | > 100 | 7.97 | > 100 | 7.64 | 25 | 5.22 | > 100 | 16400 | 1820 | 12500 | 6.2 | 2710 | 3020 | 2640 | 4880 | 2240 | 20100
Cc1nnc(N/N=C/c2ccc([N+](=O)[O-])o2)[nH]c1=O | > 100 | 22.5 | > 100 | > 100 | 13.8 | > 100 | 7.75 | 67.5 | > 100 | > 49.5 | 1050 | 589 | 1930 | 3.82 | 1070 | 1750 | 666 | 1360 | 1240 | 2570
CC1=CC(C)=N/C(=N/S(=O)(=O)c2cc(C)c(Cl)cc2SCc2ccccc2)NN1 | > 100 | > 100 | > 100 | > 100 | > 100 | > 100 | > 100 | > 100 | > 100 | > 100 | 98600 | > 100000 | > 100000 | > 100 | > 100000 | > 100000 | > 100000 | 32500 | > 100000 | > 100000
CC(NNC(=S)N1CCN(c2ccccn2)CC1)c1nccc2ccccc12 (centres undefined) | 11.4 | 11.3 | 11.9 | 18.5 | 16.9 | 12 | 2.35 | 18.9 | 20.1 | 13.2 |  |  |  |  |  |  |  |  |  | 
COC(=O)Nc1nc2ccc(C(=O)c3cccc(I)c3)cc2[nH]1 | > 87.9 | > 33.3 | 5.94 | 8.82 | > 100 | 1.54 | 18.1 | 15.4 | 14.9 | 15 | 176 | 125 | 64.7 | 0.11 | 16500 | 44.8 | 234 | 51.4 | 39.4 | 69.9
COc1ccc(C(=O)/C=C/c2ccc(OCc3cccc(C(F)(F)F)c3)c(OC)c2)cc1OC | > 1000 | > 1000 | > 1000 | > 1000 | > 1000 | > 1000 | > 1000 | > 1000 | > 1000 | > 1000 | 45800 | 74400 | 70300 | 60.2 | 32100 | 42100 | 52200 | 31600 | 49700 | 67700
O=C1/C=C/[C@@H](O)[C@@H]2C[C@@H](O)C[C@H]2/C=C/CCC[C@H](CCO)O1 | > 100 | > 80.9 | > 100 | > 100 | 0.804 |  | > 100 | > 100 | 0.646 | > 100 | 253 | 314 | 290 | 0.382 | 239 | 176 | 186 | 99.4 | 216 | 401
O=[N+]([O-])c1ccc2c(c1)C(N1CCN(CCO)CC1)Cc1ccc(F)cc1S2 (centres undefined) | 24.1 | 28.9 | 14.1 | 15.7 | 37.6 | 25.4 | 12.3 | 12.4 | 19.3 | 26.3 |  |  |  |  |  |  |  |  |  | 
Nc1ccc(C#Cc2ccccc2C#CCCCCO)cc1 | 37.8 | 20 | 41.1 | 30.2 | 30.7 | 40.4 | 28.3 | 29.8 | 33.1 | 28.7 | 18900 | 6260 | 22300 | 16.1 | 15400 | 18900 | 14900 | 14400 | 17600 | 14700
Cc1ccsc1C(NC(=O)c1ccccc1)c1cc(Cl)c2cccnc2c1O (centres undefined) | 10.9 | 14.7 | 12.2 | 4.77 | 7.3 | 7.18 | 5.22 | 14.9 | 15 | 13.6 | 371 | 971 | 333 | 0.55 | 426 | 284 | 339 | 320 | 400 | 764
COc1cc2ncnc(Oc3ccc(NC(=O)Nc4ccc(CN5CCOCC5)c(C(F)(F)F)c4)c4ccccc34)c2cc1OC | 5.91 | 1.71 | 5.54 | 3.25 | 5.17 | 21 | 3 | 12.8 | 7.43 | 10.5 | 463 | 292 | 1360 | 0.517 | 477 | 919 | 637 | 957 | 1040 | 734
